Laboratory results reported in ChEMBL document CHEMBL3044945, “Synthesis of 1,3,5-trisubstituted pyrazoline nucleus containing compounds and screening for antimicrobial activity” (2012).
Values after ≈ are worked out from the molar mass of the structure shown.

How the values were obtained:
Format in all cases: functional
[1] = tested on: Bacillus subtilis; assay: Antibacterial activity against Bacillus subtilis MTCC 441 at 100 ug/ml after 48 hr by cup-plate method; conditions: MTCC 441, 48 h, read-out: DIZ
[2] = tested on: Pseudomonas fluorescens; assay: Antibacterial activity against Pseudomonas fluorescens MTCC 2421 at 1250 ug/ml after 48 hr by cup-plate method; conditions: MTCC 2421, 48 h, read-out: DIZ
[3] = tested on: Bacillus pumilus; assay: Antibacterial activity against Bacillus pumilus MTCC 1456 at 1000 ug/ml after 48 hr by cup-plate method; conditions: MTCC 1456, 48 h, read-out: DIZ
[4] = tested on: Aspergillus niger; assay: Antifungal activity against Aspergillus niger MTCC 2546 at 100 ug/ml after 48 hr by cup-plate method; conditions: MTCC 2546, 48 h, read-out: DIZ
[5] = tested on: Staphylococcus aureus; assay: Antibacterial activity against Staphylococcus aureus MTCC 1430 at 250 ug/ml after 48 hr by cup-plate method; conditions: MTCC 1430, 48 h, read-out: DIZ
[6] = tested on: Pseudomonas fluorescens; assay: Antibacterial activity against Pseudomonas fluorescens MTCC 2421 at 500 ug/ml after 48 hr by cup-plate method; conditions: MTCC 2421, 48 h, read-out: DIZ
[7] = tested on: Pseudomonas fluorescens; assay: Antibacterial activity against Pseudomonas fluorescens MTCC 2421 at 100 ug/ml after 48 hr by cup-plate method; conditions: MTCC 2421, 48 h, read-out: DIZ
[8] = tested on: Aspergillus niger; assay: Antifungal activity against Aspergillus niger MTCC 2546 at 250 ug/ml after 48 hr by cup-plate method; conditions: MTCC 2546, 48 h, read-out: DIZ
[9] = tested on: Escherichia coli; assay: Antibacterial activity against Escherichia coli MTCC 1573 at 1250 ug/ml after 48 hr by cup-plate method; conditions: MTCC 1573, 48 h, read-out: DIZ
[10] = tested on: Pseudomonas aeruginosa; assay: Antibacterial activity against Pseudomonas aeruginosa MTCC 424 at 250 ug/ml after 48 hr by cup-plate method; conditions: MTCC 424, 48 h, read-out: DIZ
[11] = tested on: Penicillium chrysogenum; assay: Antifungal activity against Penicillium chrysogenum MTCC 161 at 100 ug/ml after 48 hr by cup-plate method; conditions: MTCC 161, 48 h, read-out: DIZ
[12] = tested on: Bacillus subtilis; assay: Antibacterial activity against Bacillus subtilis MTCC 441 at 1000 ug/ml after 48 hr by cup-plate method; conditions: MTCC 441, 48 h, read-out: DIZ
[13] = tested on: Pseudomonas aeruginosa; assay: Antibacterial activity against Pseudomonas aeruginosa MTCC 424 at 100 ug/ml after 48 hr by cup-plate method; conditions: MTCC 424, 48 h, read-out: DIZ
[14] = tested on: Pseudomonas aeruginosa; assay: Antibacterial activity against Pseudomonas aeruginosa MTCC 424 after 24 to 48 hr by tube dilution method
[15] = tested on: Bacillus pumilus; assay: Antibacterial activity against Bacillus pumilus MTCC 1456 at 750 ug/ml after 48 hr by cup-plate method; conditions: MTCC 1456, 48 h, read-out: DIZ
[16] = tested on: Pseudomonas fluorescens; assay: Antibacterial activity against Pseudomonas fluorescens MTCC 2421 at 250 ug/ml after 48 hr by cup-plate method; conditions: MTCC 2421, 48 h, read-out: DIZ
[17] = tested on: Bacillus pumilus; assay: Antibacterial activity against Bacillus pumilus MTCC 1456 at 250 ug/ml after 48 hr by cup-plate method; conditions: MTCC 1456, 48 h, read-out: DIZ
[18] = tested on: Penicillium chrysogenum; assay: Antifungal activity against Penicillium chrysogenum MTCC 161 at 250 ug/ml after 48 hr by cup-plate method; conditions: MTCC 161, 48 h, read-out: DIZ
[19] = tested on: Escherichia coli; assay: Antibacterial activity against Escherichia coli MTCC 1573 after 24 to 48 hr by tube dilution method
[20] = tested on: Pseudomonas fluorescens; assay: Antibacterial activity against Pseudomonas fluorescens MTCC 2421 at 750 ug/ml after 48 hr by cup-plate method; conditions: MTCC 2421, 48 h, read-out: DIZ
[21] = tested on: Pseudomonas aeruginosa; assay: Antibacterial activity against Pseudomonas aeruginosa MTCC 424 at 500 ug/ml after 48 hr by cup-plate method; conditions: MTCC 424, 48 h, read-out: DIZ
[22] = tested on: Bacillus pumilus; assay: Antibacterial activity against Bacillus pumilus MTCC 1456 at 1250 ug/ml after 48 hr by cup-plate method; conditions: MTCC 1456, 48 h, read-out: DIZ
[23] = tested on: Aspergillus niger; assay: Antifungal activity against Aspergillus niger MTCC 2546 at 1250 ug/ml after 48 hr by cup-plate method; conditions: MTCC 2546, 48 h, read-out: DIZ
[24] = tested on: Escherichia coli; assay: Antibacterial activity against Escherichia coli MTCC 1573 at 100 ug/ml after 48 hr by cup-plate method; conditions: MTCC 1573, 48 h, read-out: DIZ
[25] = tested on: Escherichia coli; assay: Antibacterial activity against Escherichia coli MTCC 1573 at 750 ug/ml after 48 hr by cup-plate method; conditions: MTCC 1573, 48 h, read-out: DIZ
[26] = tested on: Aspergillus niger; assay: Antifungal activity against Aspergillus niger MTCC 2546 at 500 ug/ml after 48 hr by cup-plate method; conditions: MTCC 2546, 48 h, read-out: DIZ
[27] = tested on: Bacillus subtilis; assay: Antibacterial activity against Bacillus subtilis MTCC 441 at 500 ug/ml after 48 hr by cup-plate method; conditions: MTCC 441, 48 h, read-out: DIZ
[28] = tested on: Penicillium chrysogenum; assay: Antifungal activity against Penicillium chrysogenum MTCC 161 at 1000 ug/ml after 48 hr by cup-plate method; conditions: MTCC 161, 48 h, read-out: DIZ

## NC(=O)N1N=C(c2cccc3ccccc23)CC1c1ccc([N+](=O)[O-])cc1 (stereo not drawn)
[1]
  zone of inhibition at 100 µg/mL: 10 mm
[2]
  zone of inhibition at 1250 µg/mL: 14 mm
[3]
  zone of inhibition at 1000 µg/mL: 11 mm
[4]
  zone of inhibition at 100 µg/mL: 10 mm
[5]
  zone of inhibition at 250 µg/mL: 9 mm
[6]
  zone of inhibition at 500 µg/mL: 10 mm
[7]
  zone of inhibition at 100 µg/mL: 8 mm
[8]
  zone of inhibition at 250 µg/mL: 11 mm
[9]
  zone of inhibition at 1250 µg/mL: 15 mm
[10]
  zone of inhibition at 250 µg/mL: 10 mm
[11]
  zone of inhibition at 100 µg/mL: 8 mm
[12]
  zone of inhibition at 1000 µg/mL: 15 mm
[13]
  zone of inhibition at 100 µg/mL: 9 mm
[14]
  MIC: 200 µg/mL (≈ 555 µM)
[15]
  zone of inhibition at 750 µg/mL: 10 mm
[16]
  zone of inhibition at 250 µg/mL: 9 mm
[17]
  zone of inhibition at 250 µg/mL: 8 mm
[18]
  zone of inhibition at 250 µg/mL: 9 mm
[19]
  MIC: 50 µg/mL (≈ 139 µM)
[20]
  zone of inhibition at 750 µg/mL: 11 mm
[21]
  zone of inhibition at 500 µg/mL: 11 mm
[22]
  zone of inhibition at 1250 µg/mL: 12 mm
[23]
  zone of inhibition at 1250 µg/mL: 19 mm
[24]
  zone of inhibition at 100 µg/mL: 9 mm
[25]
  zone of inhibition at 750 µg/mL: 12 mm
[26]
  zone of inhibition at 500 µg/mL: 13 mm
[27]
  zone of inhibition at 500 µg/mL: 13 mm
[28]
  zone of inhibition at 1000 µg/mL: 12 mm
